Results taken from patent publication US20090143279A1 (priority 2007, published 2009).
Read-outs that look alike come from different tables or passages of the source.

Legend:
mtOXPHOS transcripts = type: cell-based, mouse
[1] = test system: mitochondrial membrane potential; type: cell-based, mouse
nuOXPHOS transcripts = type: cell-based, mouse
reactive oxygen species = type: cell-based, mouse
OXPHOS gene expression = type: cell-based, mouse
cytochrome c = type: cell-based, mouse
[2] = test system: cellular dehydrogenase activity
[3] = composite Z-score vs DMSO wells, Conc 20 μM
[4] = composite Z-score vs mock-treated (DMSO) wells, Conc 20 μM
[5] = 20 μM, composite Z-score vs DMSO
[6] = 24.06 μM, composite Z-score vs DMSO
[7] = Conc 20 μM, normalized score vs mock-treated (DMSO) wells
[8] = composite Z-score vs mock-treated (DMSO) wells, concentration of each compound in μM
[9] = composite Z-score vs DMSO, Conc 20 μM
[10] = normalized composite Z-score vs mock-treated (DMSO) wells, Conc 20 μM

Cc1c(N(C)CS(=O)(=O)[O-])c(=O)n(-c2ccccc2)n1C.[Na+] [dipyrone]
mitoOX (mtOXPHOS transcripts; [3]): −0.820 | ΔΨm [1]: −0.738 | ΔΨm [1, 3]: −0.760 | nucOX (nuOXPHOS transcripts; [3]): −0.930 | Viability (C2C12 myotubes): −0.607 | Viability (C2C12 myotubes; [3]): −0.809 | ROS (reactive oxygen species): −0.683 | ROS (reactive oxygen species; [3]): −1.148 | GE-HTS (OXPHOS gene expression; [3]): −0.955 | cyt c (cytochrome c): 0.356 | cyt c (cytochrome c; [3]): 0.337 | MTT [2]: −1.243 | MTT [2, 3]: −1.908

NCCc1ccc(O)c(O)c1 [dopamine]
mitoOX (mtOXPHOS transcripts): −0.655 | ΔΨm [1]: −0.849 | nucOX (nuOXPHOS transcripts): −0.112 | Viability (C2C12 myotubes): −0.964 | ROS (reactive oxygen species): −0.046 | GE-HTS (OXPHOS gene expression): −0.337 | cyt c (cytochrome c): 0.007 | MTT [2]: −0.754

COc1ccc2c(c1OC)OC[C@@H](c1ccc(OC)c(OC)c1OC)C2 [duartin, dimethyl ether]
mitoOX (mtOXPHOS transcripts; [4]): −0.571 | ΔΨm [1, 4]: 0.556 | nucOX (nuOXPHOS transcripts; [4]): −1.362 | Viability (C2C12 myotubes; [4]): 1.330 | ROS (reactive oxygen species; [4]): 0.796 | GE-HTS (OXPHOS gene expression; [4]): −1.156 | cyt c (cytochrome c; [4]): −0.531 | MTT [2, 4]: −0.975

CCCCOc1ccc(C(=O)CCN2CCCCC2)cc1 [dyclonine]
mitoOX (mtOXPHOS transcripts; [3]): −1.117 | ΔΨm [1, 3]: −1.085 | nucOX (nuOXPHOS transcripts; [3]): −0.377 | Viability (C2C12 myotubes; [3]): −0.640 | ROS (reactive oxygen species; [3]): 0.379 | GE-HTS (OXPHOS gene expression; [3]): −0.690 | cyt c (cytochrome c): 0.597 | cyt c (cytochrome c; [3]): 1.243 | MTT [2, 3]: −0.882

CC[N+](C)(C)c1cccc(O)c1 [edrophonium]
mitoOX (mtOXPHOS transcripts; [5]): −0.183 | mitoOX (mtOXPHOS transcripts; [6]): −1.083 | ΔΨm [1, 5]: 0.391 | ΔΨm [1, 6]: −0.161 | nucOX (nuOXPHOS transcripts; [5]): −1.001 | nucOX (nuOXPHOS transcripts; [6]): −0.611 | Viability (C2C12 myotubes; [5]): −0.291 | Viability (C2C12 myotubes; [6]): 0.250 | ROS (reactive oxygen species; [5]): 1.006 | ROS (reactive oxygen species; [6]): 0.343 | GE-HTS (OXPHOS gene expression; [5]): −0.806 | GE-HTS (OXPHOS gene expression; [6]): −0.803 | cyt c (cytochrome c; [5]): 1.045 | cyt c (cytochrome c; [6]): 0.177 | MTT [2, 5]: −0.015 | MTT [2, 6]: 0.901

O=C(O)c1cc(O)c2c(c1)C(=O)c1cc(O)cc(O)c1C2=O [emodic acid]
mitoOX (composite Z-score) (mtOXPHOS transcripts; [7]): −1.286 | ΔΨm (composite Z-score) [1, 7]: −0.966 | nucOX (composite Z-score) (nuOXPHOS transcripts; [7]): −1.210 | Viability (composite Z-score) (C2C12 myotubes; [7]): 0.262 | ROS (composite Z-score) (reactive oxygen species; [7]): 1.403 | GE-HTS (composite Z-score) (OXPHOS gene expression; [7]): −1.336 | cyt c (composite Z-score) (cytochrome c; [7]): 0.505 | MTT (composite Z-score) [2, 7]: −0.976

O=C(CC[N+](=O)[O-])OC[C@H]1O[C@@H](O)[C@H](OC(=O)CC[N+](=O)[O-])[C@@H](OC(=O)CC[N+](=O)[O-])[C@@H]1OC(=O)CC[N+](=O)[O-] [endecaphyllin X]
mitoOX (mtOXPHOS transcripts; [8]): −0.741 | ΔΨm [1, 8]: 0.142 | nucOX (nuOXPHOS transcripts; [8]): −0.566 | Viability (C2C12 myotubes; [8]): 0.158 | ROS (reactive oxygen species; [8]): −0.292 | GE-HTS (OXPHOS gene expression; [8]): −0.660 | cyt c (cytochrome c; [8]): −0.219 | MTT [2, 8]: −1.007

ClC1=C(Cl)C2(Cl)C3C4CC(C5OC45)C3C1(Cl)C2(Cl)Cl (stereo not drawn) [endrin]
mitoOX (mtOXPHOS transcripts; [5]): −0.385 | ΔΨm [1, 5]: 0.129 | nucOX (nuOXPHOS transcripts; [5]): −0.738 | Viability (C2C12 myotubes; [5]): 0.522 | ROS (reactive oxygen species; [5]): 0.770 | GE-HTS (OXPHOS gene expression; [5]): −0.680 | cyt c (cytochrome c; [5]): 0.726 | MTT [2, 5]: −1.710

CCC(C)C(=O)O[C@@H]1C[C@@]2(C)[C@H](c3ccoc3)OC(=O)CC23OC2(C)OC34[C@H](OC(=O)C(C)C)[C@@]3(O)[C@@H](OC(=O)C5(C)OC5C)[C@@]5(C)C[C@]3(O)[C@@](C)([C@H]5CC(=O)OC)C14O2 (stereo partly drawn) [entandrophragmin]
mitoOX (mtOXPHOS transcripts; [4]): 1.061 | ΔΨm [1, 4]: 0.113 | nucOX (nuOXPHOS transcripts; [4]): 0.149 | Viability (C2C12 myotubes; [4]): 0.672 | ROS (reactive oxygen species; [4]): 1.351 | GE-HTS (OXPHOS gene expression; [4]): 0.467 | cyt c (cytochrome c; [4]): −0.703 | MTT [2, 4]: −0.737

CN[C@@H](C)[C@H](O)c1ccccc1 [ephedrine]
mitoOX (mtOXPHOS transcripts; [9]): −0.056 | ΔΨm [1, 9]: −0.834 | nucOX (nuOXPHOS transcripts; [9]): −0.100 | Viability (C2C12 myotubes; [9]): −0.536 | ROS (reactive oxygen species; [9]): 1.633 | GE-HTS (OXPHOS gene expression; [9]): −0.074 | cyt c (cytochrome c; [9]): 0.077 | MTT [2, 9]: −2.342

C=C[C@@](C)(O)CCC1C(=C)CCC2[C@@](C)(CO)CCC[C@]12C (stereo partly drawn) [epi(13)torulosol]
mitoOX (mtOXPHOS transcripts; [10]): 0.643 | ΔΨm [1, 10]: 0.022 | nucOX (nuOXPHOS transcripts; [10]): 0.342 | Viability (C2C12 myotubes; [10]): 0.367 | ROS (reactive oxygen species; [10]): 1.180 | GE-HTS (OXPHOS gene expression; [10]): 0.491 | cyt c (cytochrome c; [10]): 0.483 | MTT [2, 10]: 0.603
